Data published in the NIST ThermoML archive (doi:10.1016/j.jct.2008.06.002).
Several values for one entry are separate records, joined by “and”; a condition that tells them apart may be missing. Identical values can stand only once.

Details: Liquid

CC(F)F [1,1-difluoroethane]
Details | vapor or sublimation pressure
253.68 K | 115.2 kPa
258.44 K | 142.2 kPa and 144 kPa
263.39 K | 174.9 kPa
268.32 K | 213.7 kPa
273.23 K | 256.8 kPa
278.19 K | 308.1 kPa
278.25 K | 311.7 kPa
283.31 K | 368.5 kPa
288.27 K | 432.9 kPa
293.23 K | 506.8 kPa
298.17 K | 590.3 kPa
298.84 K | 604.4 kPa
303.37 K | 687.6 kPa
308.31 K | 791 kPa
308.37 K | 812.5 kPa
313.19 K | 904.5 kPa
318.25 K | 1034.8 kPa
323.26 K | 1175.4 kPa
323.3 K | 1185.5 kPa
328.12 K | 1326.8 kPa
333.31 K | 1502.3 kPa
338.19 K | 1683.5 kPa
343.1 K | 1879.6 kPa
343.2 K | 1891.7 kPa
348.26 K | 2104.6 kPa

O=C=O [carbon dioxide]
Details | vapor or sublimation pressure [kPa]
258.44 K | 2294
278.25 K | 3977
298.84 K | 6502.6
